In publication PMC12278645, “Design, synthesis, and antitumor activity of novel thioheterocyclic nucleoside derivatives by suppressing the c-MYC pathway” (Acta Pharmaceutica Sinica. B, 2025):

Assays:
[1] = system: CT26 colon cancer xenograft; assay: CT26 xenograft tumor growth assay; format: in vivo, BALB/c mice
Procedure: All animal studies and procedures were approved by the Animal Ethics Committee of College of Chemistry and Chemical Engineering, Henan Normal University, China. CT26 cells (ATCC, Rockville, MD, USA) were used for tumor allograft experiments. […] Mice were injected with CT26 cells (1 × 10^7 per mouse) subcutaneously. The diameter of transplanted mouse tumors was measured with vernier calipers. […] The antitumor activity of the tested compounds was evaluated by measuring the tumor diameter. Tumor diameter and body weight were measured every two days. After 15 days, tumor tissues were surgically removed, weighed, and photographed. The tumor volume (TV) was calculated as in Eq. (1):(1) V=1/2×a×b^2 where a and b represent the length and width, respectively. Samples were used for histology. The tumor growth inhibition rate TGI (%) was calculated with Eq. (2):(2) TGI(%)=(1‒Tw/Cw)×100 where Tw and Cw are the average tumor weight on the 15th day for the treatment group and the model group, respectively.

[2] = system: c-MYC signal path in HCT116 cells; assay: Western blot of c-MYC and downstream proteins; format: cell-based, human
Procedure: Whole protein was extracted and separated by polyacrylamide gel electrophoresis (SDS-PAGE) and transferred onto nitrocellulose membranes. Membranes were blotted with CDK1, Cyclin B1, Caspase-3, BAX, BCL-2, PARP-1, γ-H2AX, P53, ATF4, CHOP, PERK, ATP6, LC3, Beclin1, P62, β-Catenin, c-MYC, MAX, UPP1, GAPDH, β-Actin, and β-Tubulin primary antibodies. Protein band analyses were performed with ImageJ software and protein expression levels were presented as a percentage difference compared to control.

HCT116 cells [3] = assay: Transwell invasion assay; format: cell-based, human; conditions: 24 h
Procedure: A transwell chamber (24-well) (Corning, New York, USA) was coated with Matrigel (BD Biosciences, New Jersey, USA), and 1 × 10^5 cells per well were seeded in the upper chamber in serum-free medium and treated with defined doses of compound 33a or 36b. The complete medium was placed in the lower chamber. After 24 h, the cells penetrating through the pores were stained with 0.1% crystal violet solution and observed with a Leica DMIL fluorescence microscope (Leica Microsystems).

HCT116 cells [4] = assay: EdU assay; format: cell-based, human; conditions: 48 h
Procedure: HCT116 cells were seeded in 96-well plates (4 × 10^4 cells/well) overnight and then the cells were treated with various concentrations of compound 33a or 36b. After 48 h, the experiment operation process was performed according to the manufacturer's instructions. Images were obtained with a Leica DMIL fluorescence microscope (Leica Microsystems, Wetzlar, Germany).

Pharmacokinetic analysis = format: in vivo, Sprague–Dawley rats; conditions: for clearance / half-life / Vd / Cmax / Tmax / AUC(0-inf): male, Sprague-Dawley, plasma; for clearance / half-life / Vd / Cmax / Tmax / AUC0-∞: rat; for Vd: read-out: Vss; for AUC(0-inf): heading: AUC0-∞, Table S5, rat
Procedure: All animal studies and procedures were approved by the Animal Ethics Committee of College of Chemistry and Chemical Engineering, Henan Normal University, China. Male Sprague–Dawley rats (220 ± 10 g, Shanghai Yuanxin Biological Co., Ltd., Shanghai, China) were used to evaluate drug pharmacokinetic properties. Briefly, compound 33a or 36b was dissolved in PBS containing 10% DMSO and 20% castor oil. Rats were treated with 1 mg/kg of compound 33a or 36b for intravenous injection and 2 mg/kg for oral intragastric administration. Blood samples were collected from each rat at 0, 0.083, 0.25, 0.5, 1, 2, 4, 6, 8, 12, and 24 h. Plasma was isolated from the blood samples by centrifugation (1200 rpm, 4 °C, 10 min. ThermoFisher Scientific, Thermo Electron LED GmbH, Zweigniederlassung Osterode Am Kalkberg, Osterode am Harz, Germany). Sample concentrations were determined by LC-MS/MS (API 4000, AB SCIEX) based on a standard curve. All data were calculated by Excel software.

HCT116 cells [5] = assay: CCK-8 anti-proliferation assay, HCT116; format: cell-based, human; conditions: Homo sapiens, HCT-116, 48 h, CCK-8, 48 h, mean ± SD, three independent experiments
Procedure: Tumor cell anti-proliferation activities were determined by cell counting kit-8 (CCK-8) assay.
(§1) MCF-7, A375, and HeLa cells were cultured in DMEM, HCT116 cells were cultured in McCoy's 5A medium, and DU145 and CT26 were cultured in RPMI 1640 with 10% FBS, 1% penicillin-streptomycin solution (10,000 U/mL penicillin and 10,000 μg/mL streptomycin) at 37 °C under 5% CO2. The cells were seeded in 96-well plates (4 × 10^3 cells/well) overnight and then treated with various concentrations (1–50 μmol/L) of the compound. After 48 h, the cell viability was measured by CCK-8 assay. The absorbance of each well was measured using a microplate reader (Multiskan FC, Thermo Fisher Scientific, Massachusetts, USA) at 450 nm wavelength. Assays were performed in triplicate. Compound concentrations that inhibited cell growth by 50% (IC50) were calculated from the dose–response curves of each cell line. Data are mean ± SD values from three independent experiments.

[6] = system: MCF-7 (human breast cancer); assay: CCK-8 anti-proliferation assay, MCF-7; format: cell-based; conditions: Homo sapiens, MCF7; CCK-8, 48 h, mean ± SD
Procedure: To evaluate their spectrum of anti-proliferative activity, further CCK-8 assays were carried out with the selected compounds (5a/5b, 8a/8b, 33a/33b, and 36a/36b) on MCF-7 (human breast cancer), A375 (human malignant melanoma), DU145 (human prostate cancer), and CT26 (mouse colon cancer) cell lines. The selected compounds had moderate to potent antitumor activity on the four cell lines, indicating their broad spectrum of antitumor activity (Table 5).
as §1

c-MYC = c-MYC (Homo sapiens, UniProt P01106); assay: Surface plasmon resonance (SPR) assay; format: binding; conditions: c-MYC immobilized on CM5 chip, 25 °C
Sequence of c-MYC (P01106 whole entry): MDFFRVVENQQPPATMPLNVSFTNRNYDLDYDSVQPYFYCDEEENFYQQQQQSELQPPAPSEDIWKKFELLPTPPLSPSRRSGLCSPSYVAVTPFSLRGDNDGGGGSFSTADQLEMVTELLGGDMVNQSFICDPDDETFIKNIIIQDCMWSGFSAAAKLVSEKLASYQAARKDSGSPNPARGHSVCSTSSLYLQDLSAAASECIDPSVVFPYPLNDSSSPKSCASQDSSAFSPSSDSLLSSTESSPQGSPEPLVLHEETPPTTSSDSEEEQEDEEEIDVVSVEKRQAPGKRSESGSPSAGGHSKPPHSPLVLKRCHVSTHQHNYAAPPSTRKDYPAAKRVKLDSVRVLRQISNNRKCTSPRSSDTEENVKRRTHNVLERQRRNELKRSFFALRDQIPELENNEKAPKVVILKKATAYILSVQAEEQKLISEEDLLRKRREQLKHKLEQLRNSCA
Procedure: SPR analyses to evaluate the interaction of thioheterocyclic nucleoside derivatives with c-MYC immobilized onto a CM5 sensor chip (Cytiva, BR100012, Sweden) were performed using a Biacore T200 apparatus (Cytiva, Sweden) at 25 °C. During the analyte–ligand interaction, the change of the refractive index was measured in real-time which allowed interaction results to be plotted as response units (RU) versus time.

Row | Compound | protein levels of c-MYC, β-Catenin, MAX, P21 [2] | invasion (HCT116 cells [3]) | EdU-positive cells (HCT116 cells [4]) | clearance (Pharmacokinetic analysis; IV, 1 mg/kg) [mL/min/kg] | half-life (Pharmacokinetic analysis; IV, 1 mg/kg) [h] | Vd (Pharmacokinetic analysis; IV, 1 mg/kg) [L/kg] | Cmax (Pharmacokinetic analysis; oral (i.g.), 2 mg/kg) [ng/mL] | Tmax (Pharmacokinetic analysis; oral (i.g.), 2 mg/kg) [h] | half-life (Pharmacokinetic analysis; oral (i.g.), 2 mg/kg) [h] | IC50 (HCT116 cells [5]) [µM] | IC50 [6] [µM] | Kd (c-MYC) [µM] | also measured
1 | CCOC(=O)[C@]1(n2cnc3c(N4CCCCC4)nc(F)nc32)CSC[C@H]1O (racemic) [33a] | c-MYC, β-Catenin, and MAX were significantly decreased, whereas the expression of p21 increased significantly in a dose-dependent manner | distinctly reduced the number of HCT116 cells passing through the matrix membrane | significantly fewer EdU-positive cells than in the control group | 5.1 | 5 | 2.15 | 301 | 4 | 6.8 | 0.27 ± 0.01 | 8.45 ± 1.03 | 42.9 | TGI ([1]; 20 mg/kg i.p. once a day for 14 days): 54.74%; IHC of tumor tissue ([1]; 55 and 20 mg/kg): significantly reduce the expression of tumor proliferation markers Ki67 and PCNA, increase the expression of cleaved caspase-3, and decrease the expression of c-MYC; effect on body weight ([1]; 55 and 20 mg/kg i.p., 14 days): did not show an obvious toxic effect on body weight; tumor growth ([1]; 55 and 20 mg/kg i.p., 14 days, tumor volume and weight): significant dose-dependent inhibitory effect on tumor growth; H&E staining of major organs ([1]; heart, liver, spleen, lung, kidney): the major organs showed no apparent evidence of injury or abnormality; AUC0-∞ (Pharmacokinetic analysis; IV, 1 mg/kg): 3270 ng·h/mL; AUC0-∞ (Pharmacokinetic analysis; oral (i.g.), 2 mg/kg): 3310 ng·h/mL
2 | CCCSc1nc(F)nc2c1ncn2[C@@]1(C(=O)OCC)CSC[C@@H]1O (relative stereo) [36b] | c-MYC, β-Catenin, and MAX were significantly decreased, whereas the expression of p21 increased significantly in a dose-dependent manner | distinctly reduced the number of HCT116 cells passing through the matrix membrane | significantly fewer EdU-positive cells than in the control group | 1.89 | 4.9 | 3.54 | 276 | 4 | 4.1 | 0.49 ± 0.08 | 14.1 ± 1.24 | 206 | AUC(0-inf) (Pharmacokinetic analysis; 1 mg/kg, IV, 1 mg/kg): 8800 ng·h/mL; AUC(0-inf) (Pharmacokinetic analysis; 2 mg/kg, oral, 2 mg/kg): 1800 ng·h/mL
